The series in a line: Stability Test: storage, factor of decomposition determined by HPLC. The class given is physicochemical. On the procedure: Used were 100 g of clathrate crystals comprising 3-formylcephem compound (1) and dimethylformamide prepared in Example 1 and 100 g of 3-formylcephem compound (1) prepared in Reference Example 1 (amorphous product). They were stored in a thermostatic chamber at 20 to 25° C. and in a refrigerator at 3 to 5° C. for a specified time to determine a factor of decomposition by high performance liquid chromatorgraphy (HPLC). It is clear from the table that the cephalosporin crystals of the invention scarcely causes decomposition and are excellent in stability.

[1] abbreviates: stored in refrigerator at 3 to 5° C. for 48 days.
Setting [2] is: stored in thermostatic chamber at 20 to 25° C. for 14 days.

The text below walks through data of patent US6887992B2, “3-cephem derivative crystal” (Otsuka Kagaku Kabushiki Kaisha, priority 1999, dated 2005).

Each structure is given as a SMILES string.

Regarding `COc1ccc(COC(=O)C2=C(C=O)CSC3C(NC(=O)Cc4ccccc4)C(=O)N23)cc1` (stereo not shown) [amorphous product, p-methoxybenzyl ester of 7-phenylacetamide-3-formyl-3-cephem-4-carboxylic acid], the “Decomposition rate (%)” value is recorded as 13% under setting [1] and 59% under setting [2].

As to `COc1ccc(COC(=O)C2=C(C=O)CSC3C(NC(=O)Cc4ccccc4)C(=O)N23)cc1` (stereo not shown) [crystal, p-methoxybenzyl ester of 7-phenylacetamide-3-formyl-3-cephem-4-carboxylic acid], the “Decomposition rate (%)” value runs as follows: under setting [1], 0%; under setting [2], 2%.
